Test systems include A549; HCC 2998; HOP-62; HOP-92; K562; MOLT-4; OVCAR-4; RXF 393; SK-MEL-5; SN12C; SNB-19; SW-620; UACC-257; UO-31; ACHN; Malme-3M; NCI-H226; SF-295; MCF7; MDA-N.
What all share (assay): NCI anticancer screen, dose series, 48 h

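Test compounds were applied to cells in 96-well plates for 48 hours at 5 doses. Abbreviation: GI50, concentration required for 50% inhibition of growth.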 Activity calls are given as the source filed them. Cut-off read from the data, not from the text of the source: active = GI50 up to about 1.1 µM and inactive = higher.

As to `COc1ccc(C(=O)NNC(=O)c2nsc3ccccc23)cc1`, the GI50 in the experiment with A549 is > 100 µM (inactive); in the experiment with HCC 2998, > 100 µM (inactive); in the experiment with HOP-62, 44.5 µM (inactive); with HOP-92, 40.1 µM (inactive); with K562 it was 39.4 µM (inactive); in the experiment with MOLT-4, 34 µM (inactive). Further, the GI50 with OVCAR-4 was 68.9 µM (inactive); in the experiment on RXF 393 it was > 100 µM (inactive); with SK-MEL-5 it was > 100 µM (inactive); in the experiment on SN12C, > 100 µM (inactive); in the experiment on SNB-19, > 100 µM (inactive); in the experiment with SW-620, > 100 µM (inactive). In addition, the GI50 in the experiment on UACC-257 and in the experiment with UO-31 was > 100 µM (inactive) in each case.

Consider `CCOC(=O)C1CCn2c(nc3c2c(=O)n(C)c(=O)n3C)S1` (configuration not stated), for which the GI50 with A549, with ACHN, in the experiment with HOP-62, in the experiment with K562, in the experiment on MOLT-4 and with Malme-3M was > 100 µM (inactive) in each case. Also, the GI50 with NCI-H226, with OVCAR-4, with RXF 393, in the experiment on SF-295, in the experiment on SK-MEL-5 and in the experiment with SN12C was > 100 µM (inactive) each time. Moreover, the GI50 in the experiment with SNB-19, in the experiment on SW-620 and with UACC-257 was > 100 µM (inactive) in each case.

As to `Nc1ccccc1C(=O)N/N=C1\C(=O)Nc2ccccc21`, the GI50 is > 100 µM (inactive) in the experiment with A549; 56.4 µM (inactive) in the experiment on ACHN; > 100 µM (inactive) in the experiment with HCC 2998; 43.6 µM (inactive) with HOP-62; > 100 µM (inactive) in the experiment on K562; > 100 µM (inactive) in the experiment with MCF7. Besides, the GI50 in the experiment with MDA-N was > 100 µM (inactive); in the experiment with MOLT-4, > 100 µM (inactive); in the experiment with Malme-3M it was > 100 µM (inactive); in the experiment on NCI-H226, > 100 µM (inactive); in the experiment on OVCAR-4, > 100 µM (inactive); with RXF 393, 68.7 µM (inactive). Further, the GI50 is > 100 µM (inactive) in the experiment on SF-295; > 100 µM (inactive) in the experiment on SK-MEL-5; > 100 µM (inactive) in the experiment on SN12C; 35.4 µM (inactive) with SNB-19; > 100 µM (inactive) with UACC-257; > 100 µM (inactive) in the experiment on UO-31.

Consider `OC1CCOc2ccccc21` (configuration not stated), for which the GI50 in the experiment on A549, with ACHN, with HCC 2998, with HOP-62, with K562 and with MOLT-4 was > 100 µM (inactive) throughout. The GI50 in the experiment with Malme-3M, with NCI-H226, in the experiment with OVCAR-4, in the experiment on RXF 393, in the experiment on SK-MEL-5 and in the experiment with SN12C was > 100 µM (inactive) each time. Moreover, the GI50 in the experiment with SNB-19, in the experiment with SW-620 and with UO-31 was > 100 µM (inactive) throughout.

As to `O=C1Nc2ccc(Cl)cc2/C1=C\c1c(Cl)nc2sccn12`, the GI50 is > 100 µM (inactive) in the experiment on ACHN; 2.14 µM (inactive) in the experiment on HCC 2998; 13.9 µM (inactive) with HOP-62; > 100 µM (inactive) in the experiment with HOP-92; 0.156 µM (active) in the experiment on K562; 1.91 µM (inactive) with MDA-N. Further, the GI50 in the experiment on MOLT-4 is 2.59 µM (inactive); in the experiment on Malme-3M, > 100 µM (inactive); in the experiment with OVCAR-4 it was > 100 µM (inactive); with RXF 393, 18.6 µM (inactive); with SF-295, 3.96 µM (inactive); in the experiment with SN12C, > 100 µM (inactive). In addition, the GI50 is > 100 µM (inactive) in the experiment on SNB-19, 14.8 µM (inactive) with SW-620, > 100 µM (inactive) in the experiment on UACC-257 and > 100 µM (inactive) in the experiment with UO-31.

In the case of `COP(=O)(OC)C(N)Cc1c[nH]c2ccccc12` (configuration not stated), the GI50 with A549, in the experiment on ACHN, in the experiment with HCC 2998, in the experiment on HOP-62, in the experiment with K562 and with MCF7 was > 100 µM (inactive) each time. Also, the GI50 in the experiment on MDA-N, with MOLT-4, in the experiment with NCI-H226, in the experiment on OVCAR-4, with SF-295 and with SK-MEL-5 was > 100 µM (inactive) in each case. For the same compound, the GI50 in the experiment on SN12C, in the experiment with SNB-19, in the experiment on SW-620, with UACC-257 and with UO-31 was > 100 µM (inactive) each time.

As for `O=C1CCC(NC(=O)Cc2ccc(O)cc2)C(=O)N1` (configuration not stated), the GI50 with A549, with ACHN, in the experiment with HOP-92, in the experiment on NCI-H226, with OVCAR-4 and with SF-295 was > 2500 µM (inactive) throughout. Further, the GI50 with SK-MEL-5, in the experiment on SN12C, in the experiment on SNB-19, with SW-620, in the experiment with UACC-257 and in the experiment on UO-31 was > 2500 µM (inactive) in each case.

As for `Cc1ccc(C2CC(c3cccc([N+](=O)[O-])c3)=Nc3ccccc3S2)cc1` (configuration not stated), the GI50 was 48.8 µM (inactive) in the experiment with A549; 50.1 µM (inactive) in the experiment with ACHN; 82.2 µM (inactive) with HCC 2998; > 62.8 µM (inactive) in the experiment on HOP-62; 7.01 µM (inactive) in the experiment with HOP-92; 20.6 µM (inactive) in the experiment with K562. For the same compound, the GI50 in the experiment on MOLT-4 was 25.5 µM (inactive); with Malme-3M, > 88.9 µM (inactive); with NCI-H226 it was > 44.1 µM (inactive); in the experiment with OVCAR-4 it was 44.6 µM (inactive); with RXF 393 it was 29 µM (inactive); in the experiment on SF-295, 50.7 µM (inactive). The GI50 was 25.4 µM (inactive) with SK-MEL-5; 32.9 µM (inactive) in the experiment on SN12C; > 58.3 µM (inactive) in the experiment with SNB-19; 16.1 µM (inactive) in the experiment with SW-620; 34.6 µM (inactive) with UACC-257; 20.8 µM (inactive) in the experiment with UO-31.

Consider `CC1CC(C[N+](=O)[O-])CC2(C1)OCCO2` (configuration not stated), for which the GI50 with A549, in the experiment with ACHN, in the experiment with HCC 2998, in the experiment with HOP-62, in the experiment on K562 and in the experiment on MOLT-4 was > 100 µM (inactive) throughout. The GI50 with Malme-3M, with NCI-H226, in the experiment on OVCAR-4, in the experiment with RXF 393, in the experiment on SK-MEL-5 and in the experiment with SN12C was > 100 µM (inactive) in each case. In addition, the GI50 with SNB-19, in the experiment with SW-620, in the experiment with UACC-257 and with UO-31 was > 100 µM (inactive) each time.

Consider `O=C(OCCOC(=O)c1ccc2c(c1)C1(SCCS1)c1ccccc1-2)c1ccc2c(c1)C1(SCCS1)c1ccccc1-2`, for which the GI50 in the experiment on A549, in the experiment with ACHN, in the experiment on HCC 2998, in the experiment with HOP-62, in the experiment with K562 and in the experiment with MOLT-4 was > 100 µM (inactive) each time. For the same compound, the GI50 in the experiment with Malme-3M, with NCI-H226, in the experiment on OVCAR-4, in the experiment on SF-295, in the experiment on SK-MEL-5 and with SN12C was > 100 µM (inactive) each time. Also, the GI50 in the experiment on SNB-19, in the experiment on SW-620, with UACC-257 and in the experiment with UO-31 was > 100 µM (inactive) throughout.

For `O=C1NC(O)CCN1C1OC(CO)C(O)C1O` (configuration not stated), the GI50 with A549 was > 250 µM (inactive); with HCC 2998, > 250 µM (inactive); in the experiment on HOP-62, > 228 µM (inactive); in the experiment with HOP-92 it was > 250 µM (inactive); with K562, > 250 µM (inactive); in the experiment with MCF7 it was > 250 µM (inactive). Besides, the GI50 with MOLT-4, in the experiment on Malme-3M, in the experiment on NCI-H226, with OVCAR-4, in the experiment with RXF 393 and in the experiment with SF-295 was > 250 µM (inactive) throughout. Also, the GI50 with SK-MEL-5 was > 66.4 µM (inactive); in the experiment on SN12C, > 250 µM (inactive); in the experiment with SNB-19 it was > 250 µM (inactive); with SW-620 it was > 250 µM (inactive); in the experiment on UACC-257 it was > 250 µM (inactive); in the experiment with UO-31 it was > 250 µM (inactive).

`CC/C=C\C/C=C\C/C=C\CCCCCCCC(=O)OC` [METHYL LINOLENATE]: the GI50 is > 100 µM (inactive) in the experiment with A549; > 100 µM (inactive) with HCC 2998; > 100 µM (inactive) in the experiment with HOP-62; > 100 µM (inactive) with HOP-92; 45.5 µM (inactive) in the experiment on K562; > 100 µM (inactive) in the experiment on MCF7. Also, the GI50 was 87.5 µM (inactive) in the experiment with MOLT-4; > 100 µM (inactive) in the experiment with Malme-3M; > 100 µM (inactive) in the experiment with NCI-H226; > 100 µM (inactive) in the experiment with OVCAR-4; > 100 µM (inactive) with SF-295; > 100 µM (inactive) in the experiment with SK-MEL-5. The GI50 with SN12C, in the experiment with SNB-19, in the experiment with SW-620, in the experiment on UACC-257 and in the experiment on UO-31 was > 100 µM (inactive) in each case.

The values above are taken from ChEMBL document CHEMBL1201862, “PubChem BioAssay data set” (2004).
